Source: patent US9212196B2, “Hypophosphorous acid derivatives having antihyperalgic activity and biological applications thereof” (UNIVERSITE PARIS DESCARTES, priority 2011, dated 2015)
“Also recorded” adds a separate entry of the source.

Tests used:
[1] = biological target: mGlu4 (Homo sapiens (Human), UniProt Q14833); assay: Agonist activity on mGlu4 in transfected HEK293 cells, intracellular calcium release (Fluo4-AM); assay type: cell-based; conditions: transfected cells, calcium release; read-out: mGlu4 EC50 μM (n)
mGlu4, sequence (Q14833 33-912): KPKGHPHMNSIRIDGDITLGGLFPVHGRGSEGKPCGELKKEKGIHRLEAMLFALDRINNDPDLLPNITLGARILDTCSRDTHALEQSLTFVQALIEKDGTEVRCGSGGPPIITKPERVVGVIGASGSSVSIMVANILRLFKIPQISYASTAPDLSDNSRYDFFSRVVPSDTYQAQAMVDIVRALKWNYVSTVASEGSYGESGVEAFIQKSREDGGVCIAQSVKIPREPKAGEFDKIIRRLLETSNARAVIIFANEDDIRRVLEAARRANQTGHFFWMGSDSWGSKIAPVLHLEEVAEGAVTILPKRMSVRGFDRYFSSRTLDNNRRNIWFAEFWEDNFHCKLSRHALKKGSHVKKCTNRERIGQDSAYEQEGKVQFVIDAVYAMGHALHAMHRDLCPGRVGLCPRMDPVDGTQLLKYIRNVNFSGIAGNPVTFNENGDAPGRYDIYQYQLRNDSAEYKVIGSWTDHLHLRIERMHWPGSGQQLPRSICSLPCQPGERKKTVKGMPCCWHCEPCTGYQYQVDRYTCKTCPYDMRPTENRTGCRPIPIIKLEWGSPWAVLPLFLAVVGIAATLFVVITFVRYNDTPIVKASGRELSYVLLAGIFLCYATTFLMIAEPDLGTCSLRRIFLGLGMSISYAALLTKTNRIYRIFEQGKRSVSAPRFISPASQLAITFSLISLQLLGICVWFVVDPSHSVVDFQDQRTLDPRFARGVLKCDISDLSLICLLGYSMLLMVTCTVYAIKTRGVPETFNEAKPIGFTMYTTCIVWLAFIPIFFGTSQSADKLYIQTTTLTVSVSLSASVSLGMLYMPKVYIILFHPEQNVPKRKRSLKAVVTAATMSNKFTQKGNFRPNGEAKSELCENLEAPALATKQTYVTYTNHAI
Text: (§1) The EC50's are compared to those of L-AP4 (L-2-amino-4-phosphonobutyric acid) used as a reference.
(§2) Metabotropic glutamate receptors were transiently transfected in HEK293 cells by electroporation as described elsewhere (Brabet I. et al., 1998) and plated in 96-well microplates. The high affinity glutamate transporter EAAC1 was co-transfected with the receptor in order to avoid any influence of glutamate released by the cells in the assay medium. In the experiments carried out by the inventors, Group-III mGluRs were co-transfected with a chimeric G-protein which couples the activation of the receptor to the phospholipase-C (PLC) pathway. Thus receptor activation induces production of inositol phosphate (IP) which in turn induces intracellular Ca^2+ release. Receptor activity was then determined by measurement of the IP production or Ca release as already described (Goudet C. et al., PNAS 2004). For intracellular calcium measurements, cells expressing mGluRs were loaded with Ca2+-sensitive fluorescent dye Fluo-4 AM (Invitrogen, Cergy-Pontoise, France) dissolved in Hanks' balanced salt solution (HBSS, Invitrogen, Cergy-Pontoise, France) containing 2.5 mM Probenicid (Sigma-Aldrich Chemie, Saint-Quentin Fallavier, France) for 1 h at 37° C., then washed and incubated with HBSS containing probenecid. A drug plate was prepared with the various concentrations of agonist to be tested and drug solution was added in each well after 20 s of recording. Fluorescence signals (excitation 485 nm, emission 525 nm) were measured by using the fluorescence microplate reader Flexstation III (Molecular Devices, Saint-Grégoire, France) at sampling intervals of 1.5 s for 60 s. All points are realized in triplicate.
(§3) The dose-response curves were fitted using the GraphPad Prism program and the following equation: y=[(ymax−ymin)/(1+(x/EC50)n)]+ymin where EC50 is the concentration of the compound necessary to obtain the half maximal effect and n is the Hill coefficient.

[2] = biological target: mGlu8 (Homo sapiens (Human), UniProt O00222); assay: Agonist activity on mGlu8 in transfected HEK293 cells, intracellular calcium release (Fluo4-AM); assay type: cell-based
mGlu8, sequence (O00222 34-908): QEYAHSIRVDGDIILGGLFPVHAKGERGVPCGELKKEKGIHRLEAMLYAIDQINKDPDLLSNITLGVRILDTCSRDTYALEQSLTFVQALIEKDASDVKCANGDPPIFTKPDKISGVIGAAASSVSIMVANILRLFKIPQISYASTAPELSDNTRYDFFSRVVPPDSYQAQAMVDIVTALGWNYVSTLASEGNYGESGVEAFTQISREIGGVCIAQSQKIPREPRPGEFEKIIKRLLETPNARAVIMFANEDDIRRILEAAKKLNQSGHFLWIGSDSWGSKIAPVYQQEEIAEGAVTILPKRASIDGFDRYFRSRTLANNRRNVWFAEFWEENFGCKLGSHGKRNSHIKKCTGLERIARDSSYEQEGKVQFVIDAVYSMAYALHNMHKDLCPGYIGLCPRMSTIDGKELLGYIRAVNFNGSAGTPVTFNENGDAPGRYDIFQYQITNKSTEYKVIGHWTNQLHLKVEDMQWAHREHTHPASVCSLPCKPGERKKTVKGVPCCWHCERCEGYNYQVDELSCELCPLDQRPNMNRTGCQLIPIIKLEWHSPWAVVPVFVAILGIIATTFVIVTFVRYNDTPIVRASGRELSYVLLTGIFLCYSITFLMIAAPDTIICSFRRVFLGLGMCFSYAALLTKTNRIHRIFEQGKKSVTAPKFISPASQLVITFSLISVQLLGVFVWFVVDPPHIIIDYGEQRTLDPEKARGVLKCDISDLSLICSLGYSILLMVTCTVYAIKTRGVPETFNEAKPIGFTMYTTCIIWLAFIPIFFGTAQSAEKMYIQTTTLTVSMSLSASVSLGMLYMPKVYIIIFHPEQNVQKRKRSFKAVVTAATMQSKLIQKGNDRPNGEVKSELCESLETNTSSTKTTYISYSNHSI
Text: as §1, §2, §3

[3] = biological target: mGlu6 (Homo sapiens (Human), UniProt O15303); assay: Agonist activity on mGlu6 in transfected HEK293 cells, intracellular calcium release (Fluo4-AM); assay type: cell-based; conditions: transfected cells, calcium release; read-out: mGlu6 EC50 μM (n)
mGlu6, sequence (O15303 25-877): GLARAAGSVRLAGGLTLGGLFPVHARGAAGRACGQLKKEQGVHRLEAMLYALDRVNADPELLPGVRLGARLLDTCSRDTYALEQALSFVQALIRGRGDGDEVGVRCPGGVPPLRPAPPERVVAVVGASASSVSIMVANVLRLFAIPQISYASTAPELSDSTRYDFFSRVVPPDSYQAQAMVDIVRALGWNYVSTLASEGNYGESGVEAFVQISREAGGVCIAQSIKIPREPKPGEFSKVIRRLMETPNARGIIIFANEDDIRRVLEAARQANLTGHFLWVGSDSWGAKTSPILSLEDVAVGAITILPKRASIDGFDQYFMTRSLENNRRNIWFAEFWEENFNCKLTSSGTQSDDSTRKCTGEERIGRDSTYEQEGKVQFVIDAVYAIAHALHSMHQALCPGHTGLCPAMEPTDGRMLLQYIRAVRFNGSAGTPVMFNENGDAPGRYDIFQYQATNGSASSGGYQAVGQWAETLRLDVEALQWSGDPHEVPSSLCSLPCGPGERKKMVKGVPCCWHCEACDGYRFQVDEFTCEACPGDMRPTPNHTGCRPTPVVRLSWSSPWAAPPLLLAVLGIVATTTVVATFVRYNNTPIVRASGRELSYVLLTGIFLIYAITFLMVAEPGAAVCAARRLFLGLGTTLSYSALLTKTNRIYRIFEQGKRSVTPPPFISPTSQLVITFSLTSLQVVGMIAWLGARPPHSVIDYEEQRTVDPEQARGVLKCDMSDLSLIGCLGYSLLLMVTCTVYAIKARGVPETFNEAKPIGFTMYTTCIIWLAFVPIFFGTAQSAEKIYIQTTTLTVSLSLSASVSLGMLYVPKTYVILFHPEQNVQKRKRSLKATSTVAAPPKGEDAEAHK
Text: as §1, §2, §3

[4] = biological target: mGlu7 (Homo sapiens (Human), UniProt Q14831); assay: Agonist activity on mGlu7 in transfected HEK293 cells, intracellular calcium release (Fluo4-AM); assay type: cell-based; conditions: transfected cells, calcium release; read-out: mGlu7 EC50 μM (n)
mGlu7 (Homo sapiens (Human), UniProt Q14831), sequence (Q14831 35-915): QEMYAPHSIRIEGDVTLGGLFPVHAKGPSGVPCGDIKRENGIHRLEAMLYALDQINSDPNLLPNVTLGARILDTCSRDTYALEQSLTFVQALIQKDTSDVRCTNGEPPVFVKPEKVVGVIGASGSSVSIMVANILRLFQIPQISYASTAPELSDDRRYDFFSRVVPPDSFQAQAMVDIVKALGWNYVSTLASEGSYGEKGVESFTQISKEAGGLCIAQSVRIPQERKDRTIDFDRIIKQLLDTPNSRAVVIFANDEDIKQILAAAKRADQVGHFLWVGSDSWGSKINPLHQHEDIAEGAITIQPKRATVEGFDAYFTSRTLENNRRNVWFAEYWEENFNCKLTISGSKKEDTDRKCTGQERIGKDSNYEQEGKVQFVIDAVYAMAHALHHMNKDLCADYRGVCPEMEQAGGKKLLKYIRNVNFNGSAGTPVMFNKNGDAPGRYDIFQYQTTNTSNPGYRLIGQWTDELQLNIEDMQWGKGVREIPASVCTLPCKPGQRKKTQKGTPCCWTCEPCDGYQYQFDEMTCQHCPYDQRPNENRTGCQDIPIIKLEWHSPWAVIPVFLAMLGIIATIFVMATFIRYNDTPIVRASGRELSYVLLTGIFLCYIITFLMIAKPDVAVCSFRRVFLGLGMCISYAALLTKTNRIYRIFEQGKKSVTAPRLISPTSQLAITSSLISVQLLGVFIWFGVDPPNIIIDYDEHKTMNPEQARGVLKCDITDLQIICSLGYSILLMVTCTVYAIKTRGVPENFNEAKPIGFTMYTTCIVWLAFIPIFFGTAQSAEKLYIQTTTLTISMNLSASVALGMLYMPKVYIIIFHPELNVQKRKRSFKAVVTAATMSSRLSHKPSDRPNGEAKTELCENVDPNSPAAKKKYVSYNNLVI
Text: as §1, §2, §3

[5] = tested on: mGlu7; assay: as above; assay type: cell-based; conditions: ratio of mGlu7 EC50 to mGlu4 EC50
Text: as §1, §2, §3

[6] = tested on: healthy rats; assay: Paw pressure test in healthy rats; assay type: in vivo, rat; conditions: i.t., FIG. 1
Procedure: After the induction period of the neuropathy or inflammation, various amounts of derivative 2 dissolved in serum have been injected in rats, (from 0.5 to 15 μg/rat, i.t. from 1 to 30 mg/kg, i.p.) on time-course of vocalization threshold to paw pressure. The results obtained on healthy animals are given on FIG. 1. They are expressed by the time course curves of means+/−SEM of vocalization threshold in grams (n=6-8 rats per group) (A) or by the area under the curve (B). Morphine (10 μg/rat, i.t.) is used as a positive control.
The animals were submitted to the paw pressure test previously described by Randall and Selitto (1957). Nociceptive thresholds, expressed in grams (g), were measured with a Ugo Basile analgesimeter (Apelex, tip diameter of the probe: 1 mm, weight: 30 g) by applying an increasing pressure to the right hind paw of rats until a squeak (vocalization threshold) was obtained (cut-off was 750 g except carrageenan treated animals for which the cut-off was 500 g). The treatments were done after the measurement of two consecutive stable vocalization threshold values and their effects were assessed 15, 30, 45, 60, 90, and 120 min after.
Intrathecal injections were performed, under isoflurane anesthesia (4% induction, 2% maintenance), as previously described (Mestre et al., 1994). […]

[7] = tested on: model of inflammation induced by carrageenan in C57BL6 mice; assay: Von Frey test in carrageenan inflammation model in mice; assay type: in vivo, mouse
Procedure: FIG. 2 illustrates the effect of intrathecal administration of derivative 2 on the vocalization threshold to paw pressure in the carrageenan inflammatory pain model (effect of derivative 2 (0.5, 1, 5, 10 μg/rat, i.t.) on time-course of vocalization threshold to paw pressure). Morphine (10 μg/rat, i.t.) is used as a positive control.
Adult male Sprague-Dawley rats weighting 175-200 g were purchased from Charles River. C57/BL6 mice were from Elevage Janvier, and homozygous mGlu4 (−/−) and wild-type (+/+) littermates were generated from crosses between heterozygous animals. Animals were housed under controlled environmental conditions (22° C.; 55% humidity) and kept under a 12/12 h light/dark cycle, with food and water ad libitum for a week prior to start the experiments in order to acclimatize. Animal care and experiments were carried out in accordance with the Committee for Research and Ethical Issues of the IASP (Zimmermann M., 1983; Goudet C., 2008).
Mechanical allodynia and hyperalgesia were assessed using the von Frey hair filaments of 3 different bending forces (0.07 g, 0.6 g, 1.4 g). For each filament, 5 stimuli were applied with an interval of 3-5 s.

EC50 [1]: 0.11 ± 0.02 µM | mGlu8/4 EC50 ratio ([2]; ratio of mGlu8 EC50 to mGlu4 EC50): 256 | EC50 ([2]; transfected cells, calcium release, read-out: mGlu8 EC50 μM (n)): 29.2 ± 4.2 µM | EC50 [3]: 4.2 ± 0.6 µM | EC50 [4]: 11.6 ± 1.9 µM | mGlu7/4 EC50 ratio [5]: 100
Structure (SMILES): N[C@@H](CCP(=O)(O)C(O)c1ccc(OCC(=O)O)cc1)C(=O)O (stereo partly drawn) [Derivative 2, [((3S)-3-Amino-3-carboxy)propyl][(4-(carboxymethoxy)phenyl)hydroxymethyl]phosphinic Acid]
perception of mechanical acute pain (vocalization threshold to paw pressure) [6]: does not modify the perception of the mechanical acute pain | antihyperalgesic effect in mice lacking mGluR4 receptor versus wild-type littermates ([7]; 10 μg/mice i.t.): significantly decreased in mice lacking mGluR4 receptor; also recorded: profoundly impaired | mechanical hypersensitivity measured using Von Frey filaments ([7]; C57BL6 mice, i.t.): dose-dependently reduced the mechanical hypersensitivity
